Reference: patent publication US3983239A, “Hexahydro-γ-carboline derivatives and their salts” (priority 1974, dated 1976)
Read-outs that look alike come from different tables or passages of the source.

Legend:
[1] = test system: methamphetamine-induced stereotypy; assay: Potentiation of methamphetamine-induced stereotypy; format: in vivo, male Wistar HLA rats; parameters: key: ---: Marked antagonism; --: Moderate antagonism; -: Slight antagonism; 0: No interaction; +: Slight potentiation; ++: Moderate potentiation; +++: Marked potentiation; settings: methamphetamine 2 mg/kg i.p.
Description: 1. Potentiation of methamphetamine-induced stereotypy
This test was carried out by a modified method of R. T. Naylor (Life Sci., Vol. 10, page 909, 1971).
To male Wistar HLA rats, weighing 200 to 250 g (each group: 6 rats), were intraperitoneally administered the compounds to be tested. After 20 minutes, methamphetamine (2 mg/kg) was intraperitoneally administered to the test animals, and then the appeared stereotypy was observed. The effects of the test compounds were evaluated by the intensity of the stereotypy and the termination thereof.

Acute toxicity, mice = settings: mouse, in vivo; for LD50 at 96 h: observed 4 days
Text: (§1) Male and female STD-dd Y mice, weighing 20 to 22 g (each group: 10 mice) and male Wistar HLA rats, weighing 250 to 300 g (each group: 10 to 20 rats) were used.

[2] = test system: conditioned avoidance response; assay: Inhibiting activity of conditioned avoidance response, rats (Shuttle box method); format: in vivo; settings: Rattus norvegicus, po, read-out: ED50 value, inhibiting activity of conditioned avoidance response
self-stimulation = assay: Inhibiting activity of self-stimulation, rats; format: in vivo; settings: Rattus norvegicus, po, read-out: ED50 value, inhibiting activity of self-stimulation
Text: 8) J. Olds et al; J. Comp. Physiol. Psychol., Vol. 47, page

[3] = test system: conditioned avoidance response; assay: Inhibiting activity of conditioned avoidance response, mice; format: in vivo; settings: Mus musculus, po, read-out: ED50 value, inhibiting activity of conditioned avoidance response
muscle relaxant activity = assay: Muscle relaxant activity, rats; format: in vivo; settings: Rattus norvegicus, read-out: ED50 value, muscle relaxant activity
locomotion [4] = assay: Inhibiting activity of locomotion, rats (Open-field method); format: in vivo; settings: Rattus norvegicus, read-out: ED50 value, inhibiting activity of locomotion
Text: 3) Open-field method [C.S. Hall; J. Comp. Physiol. Psychol.

locomotion [5] = assay: Inhibiting activity of locomotion, mice (Animex method); format: in vivo; settings: Mus musculus, po, read-out: ED50 value, inhibiting activity of locomotion
catalepsy = assay: Cataleptogenic activity, rats; format: in vivo; settings: Rattus norvegicus, po, read-out: ED50 value, cataleptogenic activity
Description: The compounds of the present invention show the same central nervous system depressing pattern as the existing neuroleptics, such as an inhibiting activity of locomotion, an inhibiting activity of conditioned avoidance response, a cataleptogenic activity, a muscle relaxant activity, an inhibiting activity of self-stimulation, and an anti-methamphetamine activity in terms of locomotor activity.

Acute toxicity, rats = settings: rat, in vivo, male, observed 4 days
Text: as §1

Structure (SMILES) | Stereotypy Intensity ([1]; 2.0 mg/kg i.p.) | Stereotypy Termination ([1]; 2.0 mg/kg i.p.) | Stereotypy Intensity ([1]; 5.0 mg/kg i.p.) | Stereotypy Termination ([1]; 5.0 mg/kg i.p.) | Stereotypy Intensity ([1]; 10.0 mg/kg i.p.) | Stereotypy Termination ([1]; 10.0 mg/kg i.p.) | Stereotypy Intensity ([1]; 1.0 mg/kg i.p.) | Stereotypy Termination ([1]; 1.0 mg/kg i.p.) | other results
CCc1ccc2c(c1)C1CN(CCCC(=O)c3ccc(F)cc3)CCC1N2.Cl.Cl (stereo not shown) [B, 8-Ethyl-2-[γ-(p-fluorobenzoyl)propyl]-2,3,4,4a,5,9b-hexahydro-1H-pyrido[4,3-b]indole dihydrochloride] | + | + | +++ | +++ | +++ | +++ |  |  | 
Cc1ccc2c(c1)C1CN(CCCC(=O)c3ccc(F)cc3)CCC1N2C.Cl.Cl (stereo not shown) [C, 5,8-Dimethyl-2-[γ-(p-fluorobenzoyl)propyl]-2,3,4,4a,5,9b-hexahydro-1H-pyrido[4,3-b]indole dihydrochloride] | 0 | 0 | ++ | ++ | ++ | +++ | 0 | 0 | 
CN(C)CCCN1c2ccccc2Sc2ccc(Cl)cc21 [Chlorpromazine] | 0 | 0 | -- | + | --- | --- |  |  | LD50 at 168 h (Acute toxicity, mice; po, male, observed 7 days): 476 mg/kg; ED50 [2]: 7.04 mg/kg; ED50 (self-stimulation): 7.04 mg/kg; ED50 [3]: 5.65 mg/kg; ED50 (muscle relaxant activity; ip): 2.07 mg/kg; ED50 (muscle relaxant activity; po): 4.38 mg/kg; ED50 (locomotion [4]; ip): 2.41 mg/kg; ED50 (locomotion [4]; po): 9.88 mg/kg; ED50 (locomotion [5]): 6.34 mg/kg; ED50 (catalepsy): 16.1 mg/kg
CN1CCN(C2=Nc3cc(Cl)ccc3Nc3ccccc32)CC1 [Clozapine, 8-chloro-11-(4-methyl-1-piperazinyl)-5H-dibenzo[b,e][1,4]-diazepine] |  |  |  |  |  |  |  |  | LD50 at 96 h (Acute toxicity, mice; iv, male): 37 mg/kg; LD50 at 96 h (Acute toxicity, mice; po, female): 212 mg/kg; LD50 at 96 h (Acute toxicity, mice; po, male): 202 mg/kg; LD50 at 96 h (Acute toxicity, mice; sc, male): 194 mg/kg; ED50 ([2]; rats, p.o.): 34.7 mg/kg; LD50 at 96 h (Acute toxicity, rats; iv): 42 mg/kg; LD50 at 96 h (Acute toxicity, rats; po): 251 mg/kg; LD50 at 96 h (Acute toxicity, rats; sc): 272 mg/kg; ED50 (self-stimulation; rats, p.o.): 61.8 mg/kg; ED50 ([3]; mice, p.o.): 9.75 mg/kg; ED50 (muscle relaxant activity; ip, rats, i.p.): 5.41 mg/kg; ED50 (muscle relaxant activity; po, rats, p.o.): 28.1 mg/kg; ED50 (locomotion [4]; ip, rats, i.p.): 5.54 mg/kg; ED50 (locomotion [4]; po, rats, p.o.): 27.4 mg/kg; ED50 (locomotion [5]; mice, p.o.): 7.5 mg/kg; ED50 (catalepsy; rats, p.o.): > 100 mg/kg
CCN1c2ccc(C)cc2C2CN(CCCC(=O)c3ccc(F)cc3)CCC21.Cl.Cl (stereo not shown) [D, 5-Ethyl-8-methyl-2-[γ-(p-fluorobenzoyl)propyl]-2,3,4,4a,5,9b-hexahydro-1H-pyrido[4,3-b]indole dihydrochloride] | 0 | 0 | + | ++ | +++ | +++ | 0 | 0 | 
O=C(CCCN1CCC(O)(c2ccc(Cl)cc2)CC1)c1ccc(F)cc1 [Haloperidol] |  |  |  |  |  |  | --- | -- | Stereotypy Intensity ([1]; 0.1 mg/kg i.p.): 0; Stereotypy Termination ([1]; 0.1 mg/kg i.p.): -; Stereotypy Intensity ([1]; 0.2 mg/kg i.p.): -; Stereotypy Termination ([1]; 0.2 mg/kg i.p.): --; Stereotypy Intensity ([1]; 0.5 mg/kg i.p.): -- -; Stereotypy Termination ([1]; 0.5 mg/kg i.p.): --
Cc1ccc2[nH]c3c(c2c1)CN(CCCC(=O)c1ccc(F)cc1)CC3.Cl [compound 1, 8-Methyl-2-[γ-(p-fluorobenzoyl)propyl]-2,3,4,5-tetrahydro-1H-pyrido[4,3-b]indole hydrochloride] | 0 | 0 | 0 | 0 | 0 | 0 | 0 | 0 | 
Cl.Cl.O=C(CCCN1CCC2Nc3ccccc3C2C1)c1ccc(F)cc1 (stereo not shown) [compound 2, 2-[γ-(p-Fluorobenzoyl)propyl]-2,3,4,4a,5,9b-hexahydro-1H-pyrido[4,3-b]indole dihydrochloride] | 0 | 0 | 0 | 0 | - | 0 | 0 | 0 | 
Cl.Cl.O=C(CCCN1CCC2Nc3ccc(F)cc3C2C1)c1ccc(F)cc1 (stereo not shown) [compound 3, 8-Fluoro-2-[γ-(p-fluorobenzoyl)propyl]-2,3,4,4a,5,9b-hexahydro-1H-pyrido[4,3-b]indole dihydrochloride] | 0 | 0 | - | - | -- | -- | 0 | 0 | 
COc1ccc2c(c1)C1CN(CCCC(=O)c3ccc(F)cc3)CCC1N2.Cl.Cl (stereo not shown) [compound 4, 8-Methoxy-2-[γ-(p-fluorobenzoyl)propyl]-2,3,4,4a,5,9b-hexahydro-1H-pyrido[4,3-b]indole dihydrochloride] | 0 | 0 | 0 | 0 | -- | 0 | 0 | 0 | 
